Data: patent US11014917B2, “5-fluoro-c-(aryl or heterocyclyl)-glycoside derivatives useful as dual SGLT1 / SGLT2 modulators” (Janssen Pharmaceutica NV, priority 2017, dated 2021)

Assays:
human SGLT1 = target: T1, human SGLT1 (Homo sapiens, UniProt P13866); assay: SGLT1 assay: Na-dependent 14C-AMG uptake in CHO-K1 cells stably expressing human SGLT1; format: cell-based; conditions: for SGLT1 %-inhibition: @ 0.3 μM; for IC50: average if tested more than once
T1 construct: expressed in transfected cells
T1 sequence (P13866 1-664): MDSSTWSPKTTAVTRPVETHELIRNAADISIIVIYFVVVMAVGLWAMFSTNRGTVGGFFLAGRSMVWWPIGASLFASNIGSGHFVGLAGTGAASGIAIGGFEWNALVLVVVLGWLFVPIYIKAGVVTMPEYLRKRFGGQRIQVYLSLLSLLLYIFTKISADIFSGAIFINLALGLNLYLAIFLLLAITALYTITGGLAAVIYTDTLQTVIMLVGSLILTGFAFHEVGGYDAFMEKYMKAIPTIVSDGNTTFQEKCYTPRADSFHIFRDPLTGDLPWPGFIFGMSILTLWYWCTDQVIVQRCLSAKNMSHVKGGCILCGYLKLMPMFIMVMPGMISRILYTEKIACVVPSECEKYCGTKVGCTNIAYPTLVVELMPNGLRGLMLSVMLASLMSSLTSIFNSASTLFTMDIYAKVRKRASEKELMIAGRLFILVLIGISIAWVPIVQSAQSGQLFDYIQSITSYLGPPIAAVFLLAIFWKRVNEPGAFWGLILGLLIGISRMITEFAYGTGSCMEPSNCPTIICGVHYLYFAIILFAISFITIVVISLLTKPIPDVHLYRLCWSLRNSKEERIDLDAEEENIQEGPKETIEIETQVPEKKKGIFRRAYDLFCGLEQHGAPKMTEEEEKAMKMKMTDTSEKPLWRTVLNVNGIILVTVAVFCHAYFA
In short: (§1)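 Stable CHO-K1 lines were pretreated 24 h with 10 mM Na-butyrate, then compound (0.001–10 μM) for 10 min in Na+ buffer (137 mM NaCl, pH 7.4). Uptake of 14C-AMG (500 μM final, 0.07 μCi/well) over 2 h at 37° C measured by scintillation; %-inhibition or IC50.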

human SGLT2 = target: T2, human SGLT2 (Homo sapiens, UniProt P31639); assay: SGLT2 assay: Na-dependent 14C-AMG uptake in CHO-K1 cells stably expressing human SGLT2; format: cell-based; conditions: for SGLT2 %-inhibition: @ 0.3 μM; for IC50: average if tested more than once
T2 construct: expressed in transfected cells
T2 sequence (P31639 1-672): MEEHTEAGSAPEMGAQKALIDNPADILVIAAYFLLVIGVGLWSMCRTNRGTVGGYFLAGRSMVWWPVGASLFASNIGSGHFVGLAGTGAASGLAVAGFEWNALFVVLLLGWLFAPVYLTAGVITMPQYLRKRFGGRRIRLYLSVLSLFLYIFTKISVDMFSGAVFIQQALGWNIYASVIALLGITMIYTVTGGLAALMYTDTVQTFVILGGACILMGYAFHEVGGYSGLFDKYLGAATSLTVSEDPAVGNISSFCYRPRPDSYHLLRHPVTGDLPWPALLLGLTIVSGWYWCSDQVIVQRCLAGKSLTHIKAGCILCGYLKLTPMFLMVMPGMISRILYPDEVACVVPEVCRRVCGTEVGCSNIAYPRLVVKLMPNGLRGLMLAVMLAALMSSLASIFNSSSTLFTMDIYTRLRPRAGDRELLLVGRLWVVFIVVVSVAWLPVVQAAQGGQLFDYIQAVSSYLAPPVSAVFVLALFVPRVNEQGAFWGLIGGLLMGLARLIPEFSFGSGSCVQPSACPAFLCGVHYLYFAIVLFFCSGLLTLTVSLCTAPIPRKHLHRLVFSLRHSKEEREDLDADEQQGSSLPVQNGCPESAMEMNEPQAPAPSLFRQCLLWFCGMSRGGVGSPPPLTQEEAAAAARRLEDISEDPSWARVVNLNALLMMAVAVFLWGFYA
In short: as §1

Row | Structure (SMILES) | SGLT1 %-inhibition (human SGLT1) [% @ 0.3 μM] | SGLT2 %-inhibition (human SGLT2) [% @ 0.3 μM] | IC50 (human SGLT1) [nM] | IC50 (human SGLT2) [nM]
1 | Cc1cc(N2CCc3sc(Cc4cc([C@@H]5O[C@H](CO)[C@@H](F)[C@H](O)[C@H]5O)ccc4C)cc3C2)c(C)s1 [Compound 138] | 37.5 | 46.7 |  | 
2 | COc1c([C@@H]2O[C@H](CO)[C@@H](F)[C@H](O)[C@H]2O)cc(Cc2ccc(OCF)cc2)c2c1CCO2 [Compound 142] | 59.8 | 85.8 |  | 
3 | COc1c(Cc2ccc3c(c2)CC3)cc([C@@H]2O[C@H](CO)[C@@H](F)[C@H](O)[C@H]2O)c2c1CCO2 [Compound 152] |  |  | 6 | 6
4 | OC[C@H]1O[C@@H](c2cc(Cc3ccc4c(c3)OCCO4)c3c(c2)OCC3)[C@H](O)[C@@H](O)[C@@H]1F [Compound 153] |  |  | 50 | 58
5 | OC[C@H]1O[C@@H](c2cc(Cc3ccc4c(c3)OCCO4)c(Cl)c3c2CCO3)[C@H](O)[C@@H](O)[C@@H]1F [Compound 154] |  |  | 42 | 2
6 | CCc1ccc([C@@H]2O[C@H](CO)[C@@H](F)[C@H](O)[C@H]2O)cc1Cc1ccc2c(c1)OC(F)(F)O2 [Compound 158] | 2.6 | 18.0 |  | 
7 | CCc1ccc([C@@H]2O[C@H](CO)[C@@H](F)[C@H](O)[C@H]2O)cc1Cc1ccc2c(c1)OC(F)(F)O2 [Compound 159] | 6.0 | 0.0 |  | 
8 | [2H]C([2H])([2H])Oc1c([C@@H]2O[C@H](CO)[C@@H](F)[C@H](O)[C@H]2O)cc(Cc2ccc3c(c2)OCCO3)c2c1CCO2 [Compound 160, (2S,3R,4R,5S,6R)-2-[7-(2,3-dihydro-1,4-benzodioxin-6-ylmethyl)-4-(trideuteriomethoxy)-2,3-dihydrobenzofuran-5-yl]-5-fluoro-6-(hydroxymethyl)tetrahydropyran-3,4-diol] |  |  | 71 | 8
9 | [2H]C([2H])([2H])Oc1c([C@@H]2O[C@H](CO)[C@@H](F)[C@H](O)[C@H]2O)cc(C([2H])([2H])c2ccc3c(c2)OCCO3)c2c1CCO2 [Compound 161, (2S,3R,4R,5S,6R)-2-(7-((2,3-dihydrobenzo[b][1,4]dioxin-6-yl-)methyl-d2)-4-(methoxy-d3)-2,3-dihydrobenzofuran-5-yl)-5-fluoro-6-(hydroxymethyl)tetrahydro-2H-pyran-3,4-diol] |  |  | 52 | 7
10 | [2H]C([2H])(c1ccc2c(c1)OCCO2)c1cc([C@@H]2O[C@H](CO)[C@@H](F)[C@H](O)[C@H]2O)c(OC)c2c1OCC2 [Compound 163, (2S,3R,4R,5S,6R)-2-[7-[dideuterio(2,3-dihydro-1,4-benzodioxin-6-yl)methyl]-4-methoxy-2,3-dihydrobenzofuran-5-yl]-5-fluoro-6-(hydroxymethyl)tetrahydropyran-3,4-diol] |  |  | 50 | 8
11 | [2H]C([2H])(c1ccc2c(c1)OCCO2)c1cc([C@@H]2O[C@H](CO)[C@@H](F)[C@H](O)[C@H]2O)c(F)cc1OC [Compound 165] |  |  | 56 | 16
12 | [2H]C1([2H])Oc2ccc(Cc3cc([C@@H]4O[C@H](CO)[C@@H](F)[C@H](O)[C@H]4O)c(OC)c4c3OCC4)cc2OC1([2H])[2H] [Compound 172, (2S,3R,4R,5S,6R)-5-fluoro-6-(hydroxymethyl)-2-[4-methoxy-7-[(2,2,3,3-tetradeuterio-1,4-benzodioxin-6-yl)methyl]-2,3-dihydrobenzofuran-5-yl]tetrahydropyran-3,4-diol] |  |  | 45 | 7
13 | [2H]C1([2H])Oc2ccc(Cc3cc([C@@H]4O[C@H](CO)[C@@H](F)[C@H](O)[C@H]4O)ccc3OC)cc2OC1([2H])[2H] [Compound 173] |  |  | 190 | 13
14 | [2H]C1([2H])Oc2ccc(Cc3cc([C@@H]4O[C@H](CO)[C@@H](F)[C@H](O)[C@H]4O)c4c(c3CC)CCO4)cc2OC1([2H])[2H] [Compound 179] |  |  | 60 | 15
15 | CCc1c(Cc2ccc3c(c2)OCCO3)cc([C@@H]2O[C@H](CO)[C@@H](F)[C@H](O)[C@H]2O)c2c1CCO2 [Compound 180] |  |  | 61 | 25
16 | [2H]C1([2H])Oc2ccc(Cc3cc([C@@H]4O[C@H](CO)[C@@H](F)[C@H](O)[C@H]4O)cc4c3CCO4)cc2OC1([2H])[2H] [Compound 181] | 67.0 | 85.0 |  | 
17 | [2H]C([2H])([2H])Oc1cc(CC)c(Cc2ccc3c(c2)OCCO3)cc1[C@@H]1O[C@H](CO)[C@@H](F)[C@H](O)[C@H]1O [Compound 182] |  |  | 138 | 11

Continued, values first:

Row | SGLT1 %-inhibition (human SGLT1) [% @ 0.3 μM] | SGLT2 %-inhibition (human SGLT2) [% @ 0.3 μM] | IC50 (human SGLT1) [nM] | IC50 (human SGLT2) [nM] | Structure (SMILES)
18 |  |  | 86 | 10 | [2H]C([2H])(c1ccc2c(c1)OCCO2)c1cc([C@@H]2O[C@H](CO)[C@@H](F)[C@H](O)[C@H]2O)ccc1CC [Compound 156]
19 | 47.7 | 61.9 |  |  | [2H]C([2H])(c1ccc2c(c1)OCCO2)c1cc([C@@H]2O[C@H](CO)[C@@H](F)[C@H](O)[C@H]2O)ccc1CC [Compound 157]
20 |  |  | 245 | 11 | [2H]C([2H])(c1ccc2c(c1)OCCO2)c1cc([C@@H]2O[C@H](CO)[C@@H](F)[C@H](O)[C@H]2O)ccc1Cl [Compound 166]
21 | 37.9 | 80.1 |  |  | [2H]C([2H])(c1ccc2c(c1)OCCO2)c1cc([C@@H]2O[C@H](CO)[C@@H](F)[C@H](O)[C@H]2O)ccc1C [Compound 167]
22 | 37.2 | 72.7 |  |  | [2H]C([2H])(c1ccc2c(c1)CCCO2)c1cc([C@@H]2O[C@H](CO)[C@@H](F)[C@H](O)[C@H]2O)ccc1CC [Compound 169]
23 | 27.1 | 69.9 |  |  | [2H]C([2H])(c1ccc2c(c1)CCCO2)c1cc([C@@H]2O[C@H](CO)[C@@H](F)[C@H](O)[C@H]2O)ccc1OC [Compound 171]
24 |  |  | 87 | 12 | [2H]C1([2H])Oc2ccc(Cc3cc([C@@H]4O[C@H](CO)[C@@H](F)[C@H](O)[C@H]4O)ccc3CC)cc2OC1([2H])[2H] [Compound 175]
25 | 68.9 | 56.1 |  |  | [2H]C([2H])(c1ccc2c(c1)OC([2H])([2H])C([2H])([2H])O2)c1cc([C@@H]2O[C@H](CO)[C@@H](F)[C@H](O)[C@H]2O)ccc1CC [Compound 176]
